These results are taken from patent US11311525B2, “Use of alpha 7 nicotinic acetylcholine receptor agonists” (Novartis AG, priority 2013, dated 2022).

For one data set, the system named is brain tMHA levels. As to the kind of experiment: Brain tele-methylhistamine (tMHA) levels by LC-MS. The note with it: oral, 30 minutes after administration. It counts as in vivo, mice. As for the experimental part: Histamine (HA) is released all over the brain by tuberomammillary nucleus neurons. […] HA is metabolized by histamine-N-methyltransferase to tele-methylhistamine (tMHA) in some tissues, including brain.
Mice (n=8) were treated during the first hour of the lights-on period and sacrificed 30 min later. Brain tissue was collected and subjected to LC-MS analysis (Croyal et al. Analytical Biochemistry, 2011, 409:28-36) to determine t-MHA levels.

A further data set relates to Cynomolgus monkey. Kind of data set: Signs for emergence from ketamine/sevoflurane anesthesia in nonhuman primate (PET experiment). It counts as in vivo. As for the experimental part:
Said experiment was performed on the α7 nAChR in the non-human primate (NHP) brain.
An animal (Cynomolgus monkey, male, 5.8 kg) was anesthesized for the entire duration of the PET experiment, i.e. for approximately 7.5 hours. Due to the nature of these experiments, it is crucial that anesthesia is maintained.
General anesthesia was induced by i.m. injection of ketamine hydrochloride (10 mg/kg, Ketaminol, Intervet AB). The animal was intubated and general anesthesia was maintained by inhalational administration of sevoflurane (1.5-8%, Abbott Scandinavia AB). Body temperature was maintained by Bair Hugger Model 505 (Arizant Healthcare Inc., Eden Prairie, Minn., USA). ECG, pulse, blood pressure, respiration rate, oxygen saturation and tidal CO2 level were monitored continuously during the experiment. Ventilation of the animal (breathing frequency and volume) was controlled by machine during the general anesthesia. The animal underwent two consecutive PET scans. The PET ligand was administered i.v. at doses too low to have a pharmacodynamic effect (i.e. total dose of 0.16 and 0.25 μg). Before the start of the second PET scan, 10 mg/kg of compound A-1 was administered to the animal using an oral gavage tube.

Another data set has as its system orexin-deficient mice. Kind of data set: Orexin-deficiency model: number of narcoleptic episodes (behavioral arrests). Type of data set: in vivo. The source says:
Male transgenic mice with a knockout of the orexin peptide gene are used. Orexin-deficient mice express a phenotype with cataplexy events (observed as ‘behavioral arrests’) and a disrupted sleep pattern including fragmented sleep and sleepiness in their active period.
The animals are observed and videotaped via infrared cameras during the first hours of the lights-off period which is the active phase of nocturnal rodents like mice. At this time, orexin-deficient mice show the most ‘behavioral arrests’. The number of these events can be furthermore increased by presenting a new environment. For this purpose, new saw dust, a running wheel, marbles and tunnels are placed in the test environment. The number of ‘behavioral arrests’ are offline counted by the experimenter for each hour of recording. Behavioral arrests were defined by phases of total inactivity outside the next box, which last longer than 10 second, preceded and followed by robust locomotor activity (see also Scammell et al., 2009, Sleep 32(1): 111-116). Some of the animals have temporal skull EEG electrodes implanted which are connected to transmitters. The EEG is recorded via a receiver and stored on a PC for further analysis. EEG is used to assess and to quantify sleep behavior and vigilance stage.
A cross-over design is used because of the high inter- and intra-individual variability of the behaviors to be observed. Furthermore, to avoid habituation to the test environment, the animals are only tested once per week in the test environment. During the remaining days, the animals are in their homecage.
For each experimental session, 3-4 mice are put into the test environment 3 hours before lights-off. The first experimental session (week 1) is used to get a baseline (without treatment). The second and third sessions (weeks 2+3) are used for treatment (vehicle & compound, cross-over design, administration 5 minutes before lights-off). The fourth and last experimental session is again without treatment to evaluate a post-treatment baseline.

Another data set relates to mice. Kind of data set: EEG assessment of sleep behavior and vigilance stage. It counts as in vivo. The conditions noted are these: for Active wake (β and γ frequencies), mean difference drug-vehicle / NREM (δ frequency), mean difference drug-vehicle / Quiet wake (α frequency), mean difference drug-vehicle / REM (θ frequency), mean difference drug-vehicle: 30 mg/kg oral. On the procedure: Animals have temporal skull EEG electrodes implanted which are connected to transmitters. Animals were group-housed (2-4) per cage at a constant temperature of 22±1° C., on a 12:12 light-dark schedule. The EEG is recorded via a receiver and stored on a PC for further analysis. EEG is used to assess and to quantify sleep behavior and vigilance stage.
Animals were given a 1-day period of acclimatization in the recording cages with recording cables connected. On the 1st day of the experiment, EEG recordings were made continuously during a 22-hours period beginning at 11 A.M., 15 min after vehicle administration. On the second day of the experiment, EEG recordings were carried out in the same way, but 15 minutes after drug administration. In this way, each animal served as its own control. 10 animals were recorded from simultaneously in each experiment. Automatic evaluation of the nycthemeral cycle (REM sleep, classical sleep, wakefulness and an awake non-vigilant state termed “drowsiness”) was performed as described (Vigouret et al., 1978 Pharmacology 16 Suppl 1:156-73). In the present context, “quiet wake” and “active wake”, describe conscious animals in a resting and an active state, respectively, while “REM” and “NREM” represent sleep states.
FIG. 3 depicts the effects of 30 mg/kg compound B-1, orally administered 6 h after lights on (9:00) in mice (n=10) on quiet wake (α frequency, 9.5-12.5 Hz), active wake (β frequency, 12.5-30.5 Hz; and γ frequency, >30.5 Hz), REM sleep (θ frequency, 4.5-9.5 Hz) and NREM sleep (δ frequency, <4.5 Hz). Assessment period shown is 3 hours.

The conditions of data set [1]: cited from earlier work.
The mark [2] stands for this setting: 30 mg/kg oral 6 h after lights on, 3 hours assessment.

With `C[C@H](OC(=O)N[C@@H]1CN2CCC1CC2)c1ccccc1F` [A-1, (S)-(1-aza-bicyclo[2.2.2]oct-3-yl)-carbamic acid (S)-1-(2-fluoro-phenyl)-ethyl ester], the “brain tMHA levels” value with brain tMHA levels (10 mg/kg dose) is given as “significant elevation”. For the same molecule, the “change in breathing behavior (sign for emergence from general anesthesia)” value in the data set on Cynomolgus monkey (10 mg/kg oral gavage, fifteen minutes after administration, sevoflurane 2.9%) is reported as “shallow breathing was observed”. For the same molecule, the “doses of sevoflurane necessary to maintain anesthesia after the compound” value in the data set on Cynomolgus monkey (rest of experiment (about two hours) after 10 mg/kg oral, 2.6-2.9% before the compound) was 3.0-3.7%.

In the case of `Cc1ccc(-c2ccc(O[C@H]3CN4CCC3CC4)cn2)cc1` [B-1, (R)-3-(6-p-tolyl-pyridin-3-yloxy)-1-aza-bicyclo[2.2.2]octane], the “decrease of number of narcoleptic episodes, first hour of the observation period” value in the data set on orexin-deficient mice (10 mg/kg orally directly before lights-off, p<0.05 Anova) is on record as “ca. 66%”. For the same molecule, in the data set on mice (setting [2]), the “effect on NREM sleep” value was “decline of NREM sleep” and the “effect on time spent in quiet wake” value is “increases the time spent in quiet wake”. Moreover, in the data set on mice (time point 9:30), the “Active wake (β and γ frequencies), mean difference drug-vehicle” value (“Active wake … mean difference drug-vehicle” below) worked out at 0.9 min; the “NREM (δ frequency), mean difference drug-vehicle” value is -12.4 min; the “Quiet wake (α frequency), mean difference drug-vehicle” value amounted to 14.3 min; the “REM (θ frequency), mean difference drug-vehicle” value was -2.2 min. Further, in the data set with mice (time point 10:30), the “Active wake … mean difference drug-vehicle” value was 3.6 min; the “NREM (δ frequency), mean difference drug-vehicle” value was -7.1 min; the “Quiet wake (α frequency), mean difference drug-vehicle” value is 6.1 min; the “REM (θ frequency), mean difference drug-vehicle” value was -2.1 min. Also, in the data set with mice (time point 11:30), the “Active wake … mean difference drug-vehicle” value came out at 0.1 min; the “NREM (δ frequency), mean difference drug-vehicle” value is recorded as 2.1 min; the “Quiet wake (α frequency), mean difference drug-vehicle” value was -1.8 min; the “REM (θ frequency), mean difference drug-vehicle” value was -0.9 min. Further, in the data set on mice (time point 12:30), the “Active wake … mean difference drug-vehicle” value was 0.3 min; the “NREM (δ frequency), mean difference drug-vehicle” value was -0.1 min; the “Quiet wake (α frequency), mean difference drug-vehicle” value is -0.9 min; the “REM (θ frequency), mean difference drug-vehicle” value was -0.2 min. For the same molecule, in the data set with brain tMHA levels (all doses tested), the “brain tMHA levels” value was “significantly elevated”.

Consider `C[C@H]1[C@H](Oc2ccc(-c3ccc4[nH]ccc4c3)nn2)C2CCN1CC2` [B-4, (2S,3R)-3-[6-(1H-indol-5-yl)-pyridazin-3-yloxy]-2-methyl-1-aza-bicyclo[2.2.2]octane], for which the “decrease of number of narcoleptic episodes, whole 4 hours observation period” value with orexin-deficient mice (3 mg/kg orally directly before lights-off, p=0.03) is “ca. 25%”. Also, the “reduction of number of narcoleptic episodes, first hour” value with orexin-deficient mice (3 mg/kg orally directly before lights-off, p=0.04) was “ca. 47%”.

On to `CCCC(C)C1(CC)C(=O)NC(=S)NC1=O` (centres unmarked) [thiopentone], for which, in data set [1] (at 24 hours), the “dose remaining in the body” value is reported as at most 30%. Besides, in data set [1] (in vivo), the “elimination by oxidative metabolism in the liver, rate” value was 15 % per hour; the elimination half-life was 3.4 to 22 h; the “initial drug effect terminated by redistribution, time” value is 5 to 15 min.
